Legend:
[1] = system: MPS1; set-up: method as in PMID 23940287; settings: reported; cited from earlier work
[2] = system: orthotopic E98 GBM tumors; assay: Orthotopic E98 GBM xenograft efficacy in Abcb1a/b;Abcg2-/- mice; assay type: in vivo; settings: TMZ + RT given at tumor size 10^7-10^8 p/s
Protocol: Orthotopic GBM tumors were induced in Abcb1a/b; Abcg2^−/− mice by stereotactic injection of E98 cells expressing firefly luciferase (200,000 cells in 2 µL HBSS (Life Technologies) at an injection speed of 1 µL/min) at 2 mm lateral, 1 mm anterior and 3 mm ventral to the bregma. Tumor growth was monitored using bioluminescence imaging by injecting D-luciferin (150 mg/kg i.p.; Promega, Madison, WI) and subsequently imaging mice on an IVIS Spectrum Imaging System (PerkinElmer, Waltham, MA). Survival was monitored daily and the humane endpoint was defined as body weight loss exceeding 20%. Time-to-recurrence was defined as the number of days elapsed until the tumor regained its pre-treatment size. Tumors were treated with CT-guided radiotherapy (2–3.5 Gy per fraction) using an X-RAD 225Cx system (Precision X-Ray, North Branford, CT), temozolomide (10 mg/kg p.o. freshly prepared from powder in an aqueous solution containing 10% v/v ethanol), NTRC0066-0 (20, 10 or 5 mg/kg p.o. in an aqueous solution containing 10% v/v DMSO and 10% v/v Cremophor EL (Life Technologies)) or different combinations thereof, as described per experiment in the Figure legends.

Compound	IC50s (intrinsic potency) [1]	Tumor bioluminescence signal after regression [2]
COc1cc(N2CCC(O)CC2)ccc1Nc1nc(Nc2ccccc2S(=O)(=O)C(C)C)c2[nH]cnc2n1 [MPS1-IN-3]	micromolar range	–
Cn1nnc2c(C(N)=O)ncn2c1=O [TMZ, temozolomide, reference compound]	–	about 10^5 p/s
